{
  "source": "patent US12667582B2",
  "about": "“Composition containing 2′-FL for ameliorating, preventing or treating diseases caused by reduction of dopamine” (priority 2022, dated 2026)",
  "key": {"[1]": {"test_system": "TH (+) cells in the substantia nigra", "experiment": "Tyrosine hydroxylase (TH) immunohistochemistry of dopaminergic neurons in substantia nigra", "type": "in vivo, mouse", "details": "6-OHDA HBr injected into left striatum; top of FIG. 6", "method": "The mouse was anesthetized with chloral hydrate (400 mg/kg, ip) and fixed in a stereotaxic frame. 6-OHDA HBr (276 μg/μl×5 μl) was injected through a Hamilton microsyringe into two left striatum sites (1 mm AP, […] relative to bregma and […] and 1 mm AP, […] relative to bregma and […]) for 4 minutes (Day 0). Then, the mouse recovered from anesthesia was maintained at body temperature in a 37° C. incubator for 2 hours.\n2′-FL (500 μM×20 μl) and saline (control; 20 μl) were injected into the nose from days 0 to 28. To determine whether or not Parkinson's disease was induced and to observe behavioral changes, methamphetamine was administered to […] and behavioral changes were observed on days 7, 21, and 28, respectively (FIG. 3). FIG. 3 illustrates the timeline of an in vivo experiment.\nAfter the rotation test, the animals were slaughtered and brain tissue was removed therefrom (Veh, n=5; 2′-FL, n=4). The distribution of dopaminergic neurons was measured by immunohistochemistry using tyrosine hydroxylase (TH).\nSpecifically, the entire brain was sectioned to a thickness of 25 μm using a cryosection machine. […] The brain tissue was bound with a secondary antibody (concentration 1:500) and then was attached to a glass slide and expression was observed using a fluorescence microscope."}, "[2]": {"test_system": "dopaminergic neuron culture from ventral mesencephalon tissue", "experiment": "6-OHDA-mediated dopaminergic degeneration in primary ventral mesencephalon neuron culture (tyrosine hydroxylase immunocytochemistry)", "type": "cell-based, Sprague-Dawley rats", "details": "6-OHDA 100 μM alone, 48 hours, FIG. 2", "method": "Dopaminergic neuron culture was prepared from ventral mesencephalon tissue of E14-E15 embryos obtained from pregnant Sprague-Dawley rats. Specifically, the dissected ventral brain tissue was pooled and agitated for 15 minutes at 37° C. to separate the cells in pre-warmed trypsin EDTA (025%) and then the cells were washed with DMEM (Dulbecco's modified Eagle medium)/F12 culture medium. After washing, essential growth factors were added thereto, followed by culturing. 50% of the culture medium was replaced with fresh culture medium on the 3rd and 5th days of culture and the result was allowed to stand. From the 7th day of culture, antioxidant factors were excluded.\nIn addition, on the 10th day of culture, the neurotoxic substances 6-OHDA and 6-OHDA+2′-FL were added to the cells. After 48 hours, the cells were immobilized using 4% PFA (paraformaldehyde; Sigma-Aldrich) (FIG. 1). FIG. 1 illustrates the timeline of an in vitro experiment.\nThe viability rate of dopamine cells was determined from the immobilized cells using immunocytochemistry using tyrosine hydroxylase. Six samples were used for each group. The composition of each group is shown in Table 1 below and the number of cells was 1×10^6 which was constant for each group."}},
  "data": [
    {"smiles": "NCCc1cc(O)c(O)cc1O", "note": "[6-OHDA]", "values": [
      {"measurement": "number of TH (+) cells in the substantia nigra after the toxin", "setting": "[1]", "value": "significantly reduced"},
      {"measurement": "decrease in dopamine cells compared to the normal cell group", "setting": "[2]", "value": "caused a severe decrease in dopamine cells"}
    ]}
  ]
}
